# Source: patent US12473332B2, “Modified peptides and associated methods of use” (Advanced Technologies For Novel Therapeutics, LLC, priority 2019, dated 2025)
# Where no end group is shown, it is not given here.
# Key:
# [1] = test system: N2a cells; assay: MTT-based proliferation assay; assay type: cell-based
# Method: AKT affects a network that positively regulates G1/S cell cycle progression through several mechanisms that involve the expression and subcellular localization of the CDK inhibitor p27^Kip1 (Blain and Massague (2002) Nat. Med. 8:1076-1078; Liang, et al. (2002) supra; Shin, et al. (2002) supra; Viglietto, et al. (2002) supra). Based on these studies, the effect of ZaTa peptide on cell proliferation was assessed. […] Capturing live images of cultured N2a cells in the presence of different concentrations of the ZaTa peptide confirmed an obvious reduction in the number of dividing cells.
# Based on the importance of the C-terminal arm of ZaTa for its inhibitory action on AKT, it was determined whether the free hydroxyl groups on residues Thr-8, Thr-10 (equivalent to Thr-197 in full-length PKAc), Thr-14 and Tyr-17 were important for the biological activity of this peptide. Mutants of ZaTa peptide were synthesized by replacing Thr-8 or Thr-10 residues with Asp (ZaTa^T8D and ZaTa^T10D, respectively) as an amino acid with a negatively charged side chain. Mutants of ZaTa with the hydrophilic positively charged amino acid Arg at either position Thr-14 or Tyr-17 (ZaTa^T14R and ZaTa^Y17R, respectively) were also synthesized. […] The inhibitory effect of ZaTa peptide on cell proliferation was reversible, to a large extent, after the removal of ZaTa treatment.
# [2] = test system: PKA, PKC, CDKs; assay: stereotactic injection into brain, phosphorylation of PKA, PKC and CDKs substrates; design: species or system mouse
# Method: (§1) To analyze in vivo selectivity, ZaTa was injected into one hemisphere and DMSO in the other hemisphere, as above, and a series of western blot analyses was performed with phospho-specific antibodies which recognize a phosphorylated substrate or each one of the kinases that ZaTa inhibited at higher concentrations in vitro. […] Given the high functional and structural homology between p70S6K and AKT, the in vivo inhibitory effect of ZaTa on p70S6K was contemplated. Furthermore, the in vivo effect of ZaTa on the phosphorylation levels of substrates for PKA, PKC, CDKs using phospho-specific antibodies recognizing the phosphorylated consensus sites of these kinases was analyzed.
# As a striatal specific substrate for PKA and CDK5, the phosphorylation level of DARPP-32 was determined at Thr-34 (the PKA site) or at Thr-75 (the CDK5 site) (Huang, et al. (1999) supra).
# [3] = biological target: T1, Abl (Mus musculus, UniProt P00520); assay: stereotactic injection into brain, western blot with phospho-specific antibodies; assay type: in vivo; conditions: vs DMSO hemisphere
# T1 construct: from tissue; host or cells: brain hemisphere, in vivo
# T1 sequence (P00520 whole entry): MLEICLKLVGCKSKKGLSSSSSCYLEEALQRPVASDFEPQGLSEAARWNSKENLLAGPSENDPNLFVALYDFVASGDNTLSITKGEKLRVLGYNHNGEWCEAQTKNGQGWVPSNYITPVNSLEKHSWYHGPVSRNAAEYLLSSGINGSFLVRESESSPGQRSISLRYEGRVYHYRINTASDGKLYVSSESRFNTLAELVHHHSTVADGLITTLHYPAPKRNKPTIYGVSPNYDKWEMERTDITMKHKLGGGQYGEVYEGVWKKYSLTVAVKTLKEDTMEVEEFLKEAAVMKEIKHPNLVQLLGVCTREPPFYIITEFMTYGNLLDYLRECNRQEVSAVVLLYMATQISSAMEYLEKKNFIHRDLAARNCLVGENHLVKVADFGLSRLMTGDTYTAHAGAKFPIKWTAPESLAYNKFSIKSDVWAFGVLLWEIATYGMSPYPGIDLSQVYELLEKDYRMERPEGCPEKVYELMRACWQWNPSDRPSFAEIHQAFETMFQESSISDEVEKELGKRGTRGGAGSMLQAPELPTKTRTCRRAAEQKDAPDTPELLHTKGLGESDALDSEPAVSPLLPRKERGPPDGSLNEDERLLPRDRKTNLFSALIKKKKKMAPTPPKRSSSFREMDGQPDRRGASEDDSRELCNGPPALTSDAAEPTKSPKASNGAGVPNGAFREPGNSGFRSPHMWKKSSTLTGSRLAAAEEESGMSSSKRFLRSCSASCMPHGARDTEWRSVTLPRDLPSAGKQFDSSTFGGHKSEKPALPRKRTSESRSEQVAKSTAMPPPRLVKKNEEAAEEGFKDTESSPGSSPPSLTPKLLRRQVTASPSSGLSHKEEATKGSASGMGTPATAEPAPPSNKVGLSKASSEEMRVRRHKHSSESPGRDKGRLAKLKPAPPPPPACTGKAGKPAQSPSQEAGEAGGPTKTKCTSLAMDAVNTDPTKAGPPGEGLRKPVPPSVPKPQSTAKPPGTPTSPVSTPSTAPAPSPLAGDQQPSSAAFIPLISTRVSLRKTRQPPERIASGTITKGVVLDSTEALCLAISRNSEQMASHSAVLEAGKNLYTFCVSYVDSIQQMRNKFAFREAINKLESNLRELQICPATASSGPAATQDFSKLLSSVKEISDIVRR
# Method: as §1
# [4] = biological target: T2, p70S6K (Mus musculus, UniProt Q8BSK8); assay: as above; assay type: in vivo; conditions: vs DMSO hemisphere
# T2 construct: from tissue; host or cells: brain hemisphere, in vivo
# T2 sequence (Q8BSK8 whole entry): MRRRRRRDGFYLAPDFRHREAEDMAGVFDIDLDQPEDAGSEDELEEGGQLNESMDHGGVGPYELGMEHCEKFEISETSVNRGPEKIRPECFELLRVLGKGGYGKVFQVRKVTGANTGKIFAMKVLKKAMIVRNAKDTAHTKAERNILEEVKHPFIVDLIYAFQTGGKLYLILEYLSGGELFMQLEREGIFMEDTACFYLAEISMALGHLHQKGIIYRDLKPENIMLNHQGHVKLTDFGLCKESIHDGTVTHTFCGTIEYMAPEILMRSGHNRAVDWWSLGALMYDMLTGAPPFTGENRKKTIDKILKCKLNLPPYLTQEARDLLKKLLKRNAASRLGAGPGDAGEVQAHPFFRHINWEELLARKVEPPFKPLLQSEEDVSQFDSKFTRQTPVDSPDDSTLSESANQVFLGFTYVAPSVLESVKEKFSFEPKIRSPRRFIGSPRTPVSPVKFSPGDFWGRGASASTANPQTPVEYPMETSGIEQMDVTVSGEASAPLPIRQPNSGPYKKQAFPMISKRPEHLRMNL
# Method: as §1
# [5] = test system: N2a cells; assay: AKT-PKAc complex and neurite count in cultured N2a neurons; assay type: cell-based; conditions: 24 hours treatment
# Method: Accordingly, the stability and phenotypic consequences of the AKT-PKAc complex was also analyzed in cultured neurons. N2a cells were treated with vehicle, ZaTa or control peptide for 24 hours. Media was removed after the 24-hour treatment and an equal number of cells from each treatment group was either cultured for another 24 hours without treatment, or lysed and subjected to immunoprecipitation with an antibody against AKT. Those cells cultured for another 24 hours were also harvested and subjected to immunoprecipitation. In parallel, the number of individual neurons with neurites was counted. […] Live images of N2a neurons were captured following treatment with vehicle or ZaTa (2 or 5 μM). […] ZaTa-mediated changes included a progressive loss of neurites, inhibition of new neurite formation, loss of cell motility, as well as formation of large cell colonies.
# [6] = test system: primary neurons; assay: TUNEL assay in primary cortical culture; assay type: cell-based; conditions: 1 μM or 5 μM, 72-hour treatment, vs control peptide
# Method: It is now well-established that AKT protects against apoptosis through phosphorylation and inhibition of pro-apoptotic mediators such as BAD, FOXO family members and IKK-β (Datta, et al. (1999) Genes Dev. 13:2905-2927). […] Primary neurons were treated with DMSO, 1 μM or 5 μM of either ZaTa or the control peptide for a duration of 1, 3, 16, 24, 48 or 72 hours. The number of apoptotic cells was counted following the TUNEL assay. […] The increase in the number of apoptotic neurons following treatment with ZaTa was consistent with its potent intra-neuronal inhibition of AKT.
# [7] = biological target: T3, AKT-PKAc complex (Mus musculus, UniProt P31750); assay: AKT immunoprecipitation from striatum after stereotactic injection; assay type: in vivo, C57BL/6 mouse; conditions: ZaTa vs vehicle hemisphere
# T3 construct: ZaTa could disrupt the physical complex between AKT and PKAc in vivo; from tissue; host or cells: mouse striatum
# T3 sequence (P31750 whole entry, one chain of several): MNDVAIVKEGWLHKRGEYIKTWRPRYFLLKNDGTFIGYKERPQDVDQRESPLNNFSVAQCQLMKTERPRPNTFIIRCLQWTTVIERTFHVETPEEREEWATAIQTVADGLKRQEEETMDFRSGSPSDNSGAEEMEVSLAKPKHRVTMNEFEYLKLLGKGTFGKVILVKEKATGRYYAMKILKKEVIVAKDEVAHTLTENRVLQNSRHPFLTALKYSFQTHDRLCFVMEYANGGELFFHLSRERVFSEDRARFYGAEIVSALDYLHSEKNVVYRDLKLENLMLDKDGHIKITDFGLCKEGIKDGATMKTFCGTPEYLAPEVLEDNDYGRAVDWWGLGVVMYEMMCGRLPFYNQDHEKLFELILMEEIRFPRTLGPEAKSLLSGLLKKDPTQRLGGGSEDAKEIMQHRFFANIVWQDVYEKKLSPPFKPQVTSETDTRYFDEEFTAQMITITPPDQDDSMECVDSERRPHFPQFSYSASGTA
# Method: The phenotypic consequence of disrupting the AKT-PKAc complex was also determined. ZaTa peptide was injected into the striatum of one hemisphere of the brain and DMSO, as vehicle, was injected into the other brain hemisphere of an adult C57BL/6 mouse under anesthesia. The brain was removed and dissected. Equal protein amounts from each hemisphere were subjected to immunoprecipitation by an anti-AKT antibody. […] To compare PKAc protein levels in the ZaTa- and vehicle-treated brain hemisphere lysates, western blot analysis was conducted.
sequence,measurement,setting,value
"AKRVKGRTWTLCGTPEY [Peptide 53, A-K-R-V-K-G-R-T-W-T-L-C-G-T-P-E-Y]",number of live cells after removal of treatment (reversibility),"[1]; 24 hours after removal of 10 μM, vs DMSO vehicle",no significant differences in the number of live cells
same,number of live cells,[1]; MTT,dose-dependent decrease in the number of live cells
same,dose causing a significant decrease in the number of live cells,[1]; doses as low as,2 µM
same,"phosphorylation level of PKA, PKC and CDKs substrates in vivo",[2],"significant changes in the phosphorylation level of PKA, PKC and CDKs substrates was not observed"
same,in vivo inhibition of Abl,[3],weaker in vivo inhibition
same,in vivo inhibition of p70S6K,[4],potent in vivo inhibition
same,amount of PKAc in physical contact with AKT,[5],reduced the amount of PKAc in physical contact with AKT
same,number of neurons with neurites,[5],significant reduction in the number of neurons with neurites
same,number of TUNEL-positive cells,[6],marked dose-dependent increase in the number of TUNEL-positive cells
same,amount of PKAc in physical contact with AKT,[7],dramatically reduced
